Results from the NIST ThermoML archive (doi:10.1021/je060271a).
Several values for one entry are separate records, joined by “and”; a condition that tells them apart may be missing. Equal entries are not always repeated.

Conditions: 343.15 K, Liquid, Vibrating tube method

CCCCCCC(=O)OCC(COC(=O)CCCCCC)(COC(=O)CCCCCC)COC(=O)CCCCCC [pentaerythritol tetraheptanoate]
Conditions	mass density
4113.8 kPa	943.7 kg/m3
4138.8 kPa	943.6 kg/m3
4164 kPa	943.7 kg/m3
4194.7 kPa	943.7 kg/m3
4220.3 kPa	943.6 kg/m3
4246.6 kPa	943.7 kg/m3
4273.8 kPa	943.8 kg/m3
4305 kPa	943.9 kg/m3
4331.3 kPa	943.9 kg/m3
4358.7 kPa	944 kg/m3
4390.2 kPa	943.8 kg/m3
4413.2 kPa	943.8 kg/m3
4545.2 kPa	943.9 kg/m3
4545.5 kPa	944.1 kg/m3
4546 kPa	943.9 kg/m3
4546.2 kPa	944 kg/m3
4546.5 kPa	944 kg/m3
4547.2 kPa	944 kg/m3
4547.4 kPa	944.1 kg/m3
4547.6 kPa	944 kg/m3
4547.8 kPa	944.1 kg/m3
4547.9 kPa	944.1 kg/m3
4548.3 kPa	944 kg/m3 and 944.1 kg/m3
4548.4 kPa	944 kg/m3 and 943.9 kg/m3
4548.6 kPa	944 kg/m3
4548.8 kPa	944 kg/m3 and 944.1 kg/m3
4549 kPa	943.9 kg/m3 and 944 kg/m3
4549.1 kPa	944.2 kg/m3 and 944.1 kg/m3 and 944 kg/m3
4549.3 kPa	944 kg/m3 and 944.1 kg/m3 and 943.9 kg/m3
4549.5 kPa	944 kg/m3
4549.7 kPa	944.1 kg/m3 and 944 kg/m3
4549.8 kPa	944.1 kg/m3
4549.9 kPa	944.1 kg/m3 and 944 kg/m3
4550 kPa	944 kg/m3
4550.1 kPa	944 kg/m3 and 944.1 kg/m3
4550.2 kPa	944.1 kg/m3 and 944 kg/m3 and 943.9 kg/m3
4550.4 kPa	944 kg/m3
4550.5 kPa	944 kg/m3
4550.7 kPa	944.1 kg/m3
4550.9 kPa	944 kg/m3 and 944.2 kg/m3
4551 kPa	944 kg/m3 and 944.1 kg/m3
4551.2 kPa	944.1 kg/m3 [middle of 4 runs]
4551.4 kPa	944 kg/m3 and 944.1 kg/m3
4551.5 kPa	944 kg/m3
4551.7 kPa	944.1 kg/m3 and 944 kg/m3
4551.9 kPa	944 kg/m3 and 944.1 kg/m3
4552.1 kPa	944 kg/m3 and 944.1 kg/m3
4552.2 kPa	944.1 kg/m3 and 944 kg/m3 and 944.2 kg/m3
4552.3 kPa	944.1 kg/m3
4552.4 kPa	944 kg/m3 and 944.1 kg/m3
4552.6 kPa	944 kg/m3 and 944.1 kg/m3
4552.8 kPa	944.1 kg/m3 and 943.9 kg/m3 and 944 kg/m3
4553 kPa	944 kg/m3 and 943.9 kg/m3 and 944.1 kg/m3
4553.1 kPa	944.1 kg/m3 [middle of 4 runs]
4553.3 kPa	944 kg/m3 and 944.1 kg/m3
4553.5 kPa	944.1 kg/m3 and 944 kg/m3
4553.7 kPa	944 kg/m3 and 944.1 kg/m3
4553.8 kPa	944 kg/m3 and 944.1 kg/m3
4554 kPa	944 kg/m3 and 944.1 kg/m3
4554.2 kPa	944.1 kg/m3 and 944 kg/m3
4554.3 kPa	944 kg/m3
4554.5 kPa	944.1 kg/m3 and 944 kg/m3
4554.7 kPa	944.1 kg/m3 and 943.9 kg/m3
4554.9 kPa	944.2 kg/m3 and 944 kg/m3 and 943.9 kg/m3
4555 kPa	944 kg/m3 and 944.1 kg/m3
4555.2 kPa	944 kg/m3 and 944.1 kg/m3
4555.4 kPa	944.1 kg/m3 and 944 kg/m3 and 943.9 kg/m3
4555.5 kPa	944.2 kg/m3 and 944 kg/m3 and 944.1 kg/m3
4555.7 kPa	944 kg/m3
4555.9 kPa	944 kg/m3 and 944.1 kg/m3
4556.1 kPa	944 kg/m3
4556.2 kPa	944 kg/m3 and 944.1 kg/m3
4557.6 kPa	944 kg/m3
4559 kPa	944.1 kg/m3
4559.2 kPa	944 kg/m3 and 943.9 kg/m3
4559.3 kPa	943.9 kg/m3
4559.7 kPa	944.1 kg/m3 and 944.2 kg/m3
4559.9 kPa	944.1 kg/m3
4560 kPa	944.1 kg/m3
4560.9 kPa	944.1 kg/m3
4564.5 kPa	944 kg/m3
4567.8 kPa	944 kg/m3
4571.1 kPa	944.2 kg/m3
4574.9 kPa	944 kg/m3
4578.4 kPa	944.1 kg/m3
4581.7 kPa	944 kg/m3
4584.6 kPa	943.9 kg/m3
4588.4 kPa	944 kg/m3
4591.7 kPa	944.1 kg/m3
4595.2 kPa	944.1 kg/m3
4598.3 kPa	944.1 kg/m3
4602.3 kPa	944.1 kg/m3
4605.4 kPa	943.9 kg/m3
4608.7 kPa	944.1 kg/m3
4612.7 kPa	944.2 kg/m3
4616.3 kPa	944 kg/m3
4619.4 kPa	944.1 kg/m3
4622.7 kPa	944.1 kg/m3
4626.7 kPa	944.2 kg/m3
4630 kPa	944 kg/m3
4633.1 kPa	944.1 kg/m3
4637.3 kPa	944.2 kg/m3
4640.7 kPa	944.1 kg/m3
4644 kPa	944.1 kg/m3
4647.3 kPa	944.1 kg/m3
4651.3 kPa	944 kg/m3
4654.6 kPa	944.1 kg/m3
4658.4 kPa	944 kg/m3
4662 kPa	944.1 kg/m3
4665.5 kPa	944.2 kg/m3
4669.3 kPa	944.1 kg/m3
4672.9 kPa	944.2 kg/m3
4676.2 kPa	944.1 kg/m3
4680 kPa	944.2 kg/m3
4683.3 kPa	944.1 kg/m3
4687.3 kPa	944.1 kg/m3
4690.8 kPa	944.1 kg/m3
4693.9 kPa	944.2 kg/m3
4698.2 kPa	944.2 kg/m3
4701.7 kPa	944.1 kg/m3
4705 kPa	944.2 kg/m3
4708.9 kPa	944.2 kg/m3
4712.2 kPa	944.2 kg/m3
4715.9 kPa	944.1 kg/m3
4719.3 kPa	944.1 kg/m3
4723.7 kPa	944.1 kg/m3
4726.4 kPa	944.2 kg/m3
4730.1 kPa	944.2 kg/m3
4733.2 kPa	944.2 kg/m3
4737.5 kPa	944.3 kg/m3
4741 kPa	944.2 kg/m3
4744.3 kPa	944.2 kg/m3
4747.7 kPa	944.2 kg/m3
4752.2 kPa	944 kg/m3
4755.3 kPa	944.1 kg/m3
4759 kPa	944.1 kg/m3
4763.1 kPa	944.1 kg/m3
4766.6 kPa	944.2 kg/m3
4770.2 kPa	944.3 kg/m3
4774.2 kPa	944.2 kg/m3
4777.7 kPa	944.3 kg/m3
4781.6 kPa	944.1 kg/m3
4785.1 kPa	944.2 kg/m3
4788.7 kPa	944.4 kg/m3
4792.9 kPa	944.3 kg/m3
4796.7 kPa	944.2 kg/m3
4800 kPa	944.2 kg/m3
4804.5 kPa	944.2 kg/m3
4807.9 kPa	944.3 kg/m3
4811.2 kPa	944.2 kg/m3
4815.9 kPa	944.1 kg/m3
4819.4 kPa	944.2 kg/m3
4823.2 kPa	944.2 kg/m3
4826.8 kPa	944.3 kg/m3
4831 kPa	944.2 kg/m3
4834.6 kPa	944.2 kg/m3
4838.2 kPa	944.2 kg/m3
4842 kPa	944.1 kg/m3
4846.4 kPa	944.4 kg/m3
4849.8 kPa	944.2 kg/m3
4853.5 kPa	944.2 kg/m3
4857.8 kPa	944.3 kg/m3
4861.9 kPa	944.3 kg/m3
4865.4 kPa	944.3 kg/m3
4869.2 kPa	944.3 kg/m3
4872.8 kPa	944.2 kg/m3
4877.3 kPa	944.3 kg/m3
4881 kPa	944.3 kg/m3
4884.8 kPa	944.3 kg/m3
4889.1 kPa	944.2 kg/m3
4892.9 kPa	944.2 kg/m3
4896.6 kPa	944.3 kg/m3
4901.2 kPa	944.3 kg/m3
4905 kPa	944.3 kg/m3
4908.5 kPa	944.2 kg/m3
4913 kPa	944.2 kg/m3
4916.8 kPa	944.3 kg/m3
4920.4 kPa	944.2 kg/m3
4924.1 kPa	944.3 kg/m3
4928.6 kPa	944.4 kg/m3
4932.2 kPa	944.4 kg/m3
4936 kPa	944.3 kg/m3
4940.7 kPa	944.3 kg/m3
4944.5 kPa	944.3 kg/m3
4948.5 kPa	944.4 kg/m3
4952.3 kPa	944.3 kg/m3
4956.8 kPa	944.4 kg/m3
4960.4 kPa	944.2 kg/m3
4964.6 kPa	944.3 kg/m3
4968.4 kPa	944.3 kg/m3
4972.4 kPa	944.2 kg/m3
4977 kPa	944.2 kg/m3
4980.7 kPa	944.5 kg/m3
4985.5 kPa	944.4 kg/m3
4989.3 kPa	944.4 kg/m3
4993.1 kPa	944.3 kg/m3
4996.9 kPa	944.4 kg/m3
5001.4 kPa	944.3 kg/m3
5005.4 kPa	944.4 kg/m3
5009.1 kPa	944.3 kg/m3
5014.1 kPa	944.4 kg/m3
5018.1 kPa	944.4 kg/m3
5022 kPa	944.4 kg/m3
5027 kPa	944.4 kg/m3
5030.1 kPa	944.4 kg/m3
5035.7 kPa	944.4 kg/m3
5043.5 kPa	944.3 kg/m3
5047.3 kPa	944.4 kg/m3
5051.4 kPa	944.4 kg/m3
5054.7 kPa	944.3 kg/m3
5058.5 kPa	944.5 kg/m3
5065.1 kPa	944.5 kg/m3
5069.1 kPa	944.4 kg/m3
5072.9 kPa	944.4 kg/m3
5077 kPa	944.4 kg/m3
5080.4 kPa	944.4 kg/m3
5085.2 kPa	944.4 kg/m3
5089.2 kPa	944.5 kg/m3
5093.4 kPa	944.5 kg/m3
5098.2 kPa	944.4 kg/m3
5102.2 kPa	944.3 kg/m3
5105.8 kPa	944.4 kg/m3
5109.6 kPa	944.5 kg/m3
